Broadly, the chromatographic logP is a lipophilicity value derived from retention on a column. Read a high chromatographic logP as higher lipophilicity.

The first data set can be described thus: physchem. The settings on record: logP.
Turning to `COC(=O)c1cnn2c(Cl)c(C3CCCC3)c(Cl)nc12` [methyl 5,7-dichloro-6-cyclopentylpyrazolo[1,5-a]pyrimidine-3-carboxylate], the chromatographic logP was 3.31.
Regarding `CCC(C)c1c(Cl)nc2c(C(=O)OC)cnn2c1N[C@@H](C)C(C)C` (stereo partly drawn) [methyl 5-chloro-6-(sec-butyl)-7-[(S)-3-methyl-2-butylamino]pyrazolo[1,5-a]pyrimidine-3-carboxylate], the chromatographic logP worked out at 4.49.
Take `COC(=O)c1cnn2c(N[C@@H](C)C(C)C)c(-c3ccc(C#N)cc3Cl)c(Cl)nc12` (single isomer, unassigned) [drawing 53 atropisomer A]: the chromatographic logP stood at 3.72.
In the case of `C[C@@H](Nc1c(-c2ccc(F)cc2Cl)c(Cl)nc2c(C3=NOCCO3)cnn12)C(C)(C)C` [Example VIII], the chromatographic logP stood at 4.43.
Still for that read-out and setting: as for `CC(C)[C@@H](C)Nc1c(-c2ccc(C#N)cc2Cl)c(Cl)nc2c(C(=O)O)cnn12` (single isomer, unassigned) [Example XIX], the figure is 2.9.
In the case of `C[C@H](Nc1c(C2CCCC2)c(Cl)nc2c(C(=O)O)cnn12)C(F)(F)F` [Example XVII, 5-chloro-6-cyclopentyl-7-[(S)-3-trifluoroisopropylamino]pyrazolo[1,5-a]pyrimidine-3-carboxylic acid], the chromatographic logP turned out to be 3.06.
Still for that read-out and setting: the value for `CC(C)[C@@H](C)Nc1c(-c2ccc(C(N)=O)cc2Cl)c(Cl)nc2c(C(=O)O)cnn12` (single isomer, unassigned) [Example XX] was 1.96.
Still for that read-out and setting: as for `COC(=O)c1cnn2c(N[C@H](C)C(C)C)c(-c3ccc(C#N)cc3Cl)c(Cl)nc12` (single isomer, unassigned) [drawing 52 atropisomer A], the figure is 3.64; as for `C[C@@H](Nc1c(-c2ccc(F)cc2Cl)c(Cl)nc2c(-c3ncco3)cnn12)C(C)(C)C` [Example VII], 4.72.
The same measure, in the same setting: as for `COC(=O)C(C(=O)OC)c1ccc(C#N)cc1Cl` [dimethyl(2-chloro-4-cyanophenyl)malonate], the figure is 2.34.
With `CCC(C)c1c(Cl)nc2c(C(=O)OC)cnn2c1N[C@@H](C)C(F)(F)F` (stereo partly drawn) [methyl 5-chloro-6-(sec-butyl)-7-[(S)-3-trifluoroisopropylamino]pyrazolo[1,5-a]pyrimidine-3-carboxylate], the chromatographic logP was determined as 3.76.
The same measure, in the same setting: the value for `C[C@@H](Nc1c(-c2ccc(F)cc2Cl)c(Cl)nc2c(C3=NOCCN3)cnn12)C(C)(C)C` [Example IX] was 3.23.
Still for that read-out and setting: the value for `CC(C)C(C)Nc1c(-c2ccc(F)cc2Cl)c(Cl)nc2c(-c3ccccn3)cnn12` (stereo not drawn) [compound 538] was 3.54; that for `N#Cc1ccc(Br)c(Cl)c1` [3-chloro-4-bromobenzonitrile] was 2.82.
The same measure, in the same setting: as for `COC(=O)c1cnn2c(N[C@@H](C)C(C)C)c(C3CCCC3)c(Cl)nc12` [methyl 5-chloro-6-cyclopentyl-7-[(S)-3-methyl-2-butylamino]pyrazolo[1,5-a]pyrimidine-3-carboxylate], the figure is 4.72; as for `COC(=O)c1cnn2c(N[C@@H](C)C(F)(F)F)c(C3CCCC3)c(Cl)nc12` [methyl 5-chloro-6-cyclopentyl-7-[(S)-3-trifluoroisopropylamino]pyrazolo[1,5-a]pyrimidine-3-carboxylate], 3.89.
`CCC(C)c1c(Cl)nc2c(C(=O)O)cnn2c1N[C@@H](C)C(F)(F)F` (stereo partly drawn) [Example XII, 5-chloro-6-(sec-butyl)-7-[(S)-3-trifluoroisopropylamino]pyrazolo[1,5-a]pyrimidine-3-carboxylic acid] yielded a chromatographic logP of 2.88.
As to `CCC(C)c1c(Cl)nc2c(C(=O)OC)cnn2c1N[C@H](C)C(C)C` (stereo partly drawn) [methyl 5-chloro-6-(sec-butyl)-7-[(R)-3-methyl-2-butylamino][1,5-a]pyrimidine-3-carboxylate], the chromatographic logP stood at 4.49.
With `CCC(C)c1c(Cl)nc2c(C(=O)OC)cnn2c1Cl` (stereo not drawn) [methyl 5,7-dichloro-6-(sec-butyl)-pyrazolo[1,5-a]pyrimidine-3-carboxylate], the chromatographic logP worked out at 3.13.
Compound `C[C@H](Nc1c(-c2ccc(C#N)cc2Cl)c(Cl)nc2c(C(=O)O)cnn12)C(F)(F)F` (single isomer, unassigned) [Example XXII] returned a chromatographic logP of 2.63.
Still for that read-out and setting: as for `COC(=O)c1cnn2c(N[C@@H](C)C(F)(F)F)c(-c3ccc(C#N)cc3Cl)c(Cl)nc12` (single isomer, unassigned) [drawing 54 atropisomer A], the figure is 3.32.
On to `CCC(C)c1c(Cl)nc2c(C(=O)O)cnn2c1N[C@@H](C)C(C)C` (stereo partly drawn) [Example XIV, 5-chloro-6-(sec-butyl)-7-[(S)-3-methyl-2-butylamino]pyrazolo[1,5-a]pyrimidine-3-carboxylic acid], for which the chromatographic logP stood at 3.52.
In turn, `C[C@@H](Nc1c(-c2ccc(F)cc2Cl)c(Cl)nc2c(C(=O)NO)cnn12)C(C)(C)C` showed a chromatographic logP of 3.51.

Still in this data set, the particulars now being: logPs.
Consider `Cc1nnc(-c2cnn3c(NC(C)C(C)C)c(-c4ccc(F)cc4Cl)c(Cl)nc23)o1` (stereo not drawn) [Example XXXVI], for which the chromatographic logP is 3.94.
The same measure, in the same setting: as for `CC(C)C(C)Nc1c(-c2ccc(F)cc2Cl)c(Cl)nc2c(-c3nnc(N)s3)cnn12` (stereo not drawn) [Example XXIX], the figure is 3.57; as for `Cc1nnc(-c2cnn3c(NC(C)C(C)C)c(-c4ccc(F)cc4Cl)c(Cl)nc23)[nH]1` (stereo not drawn) [XXXVII, [5-chloro-6-(2-chloro-4-fluorophenyl)-3-(5-methyl-[1,3,4]triazol-2-yl)pyrazolo[1,5-a]pyrimidin-7-yl](1,2-dimethylpropyl)-amine], 2.91.
Same read-out and setting: the value for `COC(=O)c1cnn2c(N[C@H](C)C(C)C)c(-c3c(F)cccc3Cl)c(Cl)nc12` [methyl 5-chloro-6-(2-chloro-6-fluorophenyl)-7-{[(1R)-1,2-dimethylpropyl]amino}pyrazolo[1,5-a]pyrimidine-3-carboxylate] was 4.12.
`CNS(=O)(=O)c1cnn2c(NC(C)C(C)(C)C)c(-c3ccc(F)cc3Cl)c(Cl)nc12` (stereo not drawn) [N-methyl-5-chloro-6-(2-chloro-4-fluorophenyl)-7-(1,2,2-trimethylpropylamino)pyrazolo[1,5-a]pyrimidine-3-sulphonamide] yielded a chromatographic logP of 4.09.
The same measure, in the same setting: as for `Cc1ccsc1-c1c(Cl)nc2c(-c3ncco3)cnn2c1NC(C)C(C)C` (stereo not drawn) [Example XXVII, [5-Chloro-6-(3-methylthiophen-2-yl)-3-oxazol-2-ylpyrazolo[1,5-α]pyrimidin-7-yl](1,2-dimethyl-propyl)amine], the figure is 4.3; as for `COC(=O)c1cnn2c(O)c(-c3c(F)cccc3Cl)c(O)nc12` [methyl 6-(2-chloro-6-fluorophenyl)-5,7-dihydroxypyrazolo[1,5-a]pyrimidine-3-carboxylate], 0.55.
For `COC(=O)c1cnn2c(NC(C)C(C)C)c(-c3sccc3C)c(OC)nc12` (stereo not drawn) [methyl 7-(1,2-dimethylpropylamino)-5-methoxy-6-(3-methylthiophen-2-yl)pyrazolo[1,5-a]-pyrimidine-3-carboxylate], the chromatographic logP amounted to 4.6.
The same measure, in the same setting: as for `CC(C)NC(=O)c1cnn2c(N[C@H](C)C(C)C)c(-c3c(F)cccc3Cl)c(Cl)nc12` [Example IV, 5-chloro-6-(2-chloro-6-fluorophenyl)-7-{[(1R)-1,2-dimethylpropyl]amino}-N-isopropylpyrazolo[1,5-a]pyrimidine-3-carboxamide], the figure is 4.72; as for `Cc1ccsc1-c1c(Cl)nc2c(C(N)=O)cnn2c1NC(C)C(C)C` (stereo not drawn) [5-chloro-7-(1,2-dimethylpropylamino)-6-(3-methylthiophen-2-yl)pyrazolo[1,5-α]pyrimidine-3-carboxamide], 3.5.
Still for that read-out and setting: as for `CC(C)[C@@H](C)Nc1c(-c2c(F)cccc2Cl)c(Cl)nc2c(C(=O)O)cnn12` [Example V, 5-chloro-6-(2-chloro-6-fluorophenyl)-7-{[(1R)-1,2-dimethylpropyl]amino}pyrazolo[1,5-a]pyrimidine-3-carboxylic acid], the figure is 3.24.
The same measure, in the same setting: the value for `Cc1ccsc1-c1c(Cl)nc2c(-c3nsc(=O)o3)cnn2c1NC(C)C(C)C` (stereo not drawn) [Example XXVI, 5-[5-Chloro-7-(1,2-dimethylpropylamino)-6-(3-methylthiophen-2-yl)pyrazolo[1,5-α]pyrimidin-3-yl]-[1,3,4]oxathiazol-2-one] was 5; that for `Cc1nnc(-c2cnn3c(O)c(-c4ccc(F)cc4Cl)c(O)nc23)o1` [Example XXX, 6-(2-Chloro-4-fluorophenyl)-3-(5-methyl-[1,3,4]oxadiazol-2-yl)pyrazolo[1,5-a]pyrimidine-5,7-diol] was 0.67.
Compound `CC(C)C(C)Nc1c(-c2ccc(F)cc2Cl)c(Cl)nc2c(-c3ccccn3)cnn12` (stereo not drawn) [XXXVIII, [5-chloro-6-(2-chloro-4-fluorophenyl)-3-pyridin-2-ylpyrazolo[1,5-a]pyrimidin-7-yl](1,2-dimethylpropyl)amine] came in with a chromatographic logP of 3.54.
The same measure, in the same setting: the value for `Cc1nnc(-c2cnn3c(O)c(-c4ccc(F)cc4Cl)c(O)nc23)[nH]1` [Example XXXI, 6-(2-chloro-4-fluorophenyl)-3-(5-methyl-[1,3,4]triazol-2-yl)pyrazolo[1,5-a]pyrimidine-5,7-diol] was 0.51; that for `CC(C)C(C)Nc1c(-c2ccc(F)cc2Cl)c(Cl)nc2c(/C=N/NC(N)=S)cnn12` (stereo not drawn) [Thiosemicarbazone of 5-chloro-6-(2-chloro-4-fluorophenyl)-7-(1,2-dimethyl-propylamino)pyrazolo[1,5-a]pyrimidine-3-carbaldehyde] was 3.75.
On the same count and under the same terms, as for `COc1nc2c(C(=O)O)cnn2c(NC(C)C(C)C)c1-c1sccc1C` (stereo not drawn) [Example XXV, 7-(1,2-dimethylpropylamino)-5-methoxy-6-(3-methylthiophen-2-yl)pyrazolo[1,5-α]pyrimidine-3-carboxylic acid], the figure is 3.65; as for `Oc1nc2c(-c3ccccn3)cnn2c(O)c1-c1ccc(F)cc1Cl` [Example XXXII, 6-(2-chloro-4-fluorophenyl)-3-pyridin-2-ylpyrazolo[1,5-a]pyrimidine-5,7-diol], 0.91.
`CSc1cnn2c(N3CCC(C)CC3)c(-c3ccc(F)cc3Cl)c(Cl)nc12` [Example I, 5-chloro-6-(2-chloro-4-fluorophenyl)-7-(4-methylpiperidin-1-yl)-3-methylmercapto-pyrazolo [2,3-a]pyrimidine] returned a chromatographic logP of 5.73.

The values are drawn from US7629294B2, “Pyrazolopyrimidines” (Bayer CropScience LP, priority 2004, dated 2009).
